The target of the assay is T1, cytochrome P450 2D6 (Homo sapiens, UniProt P10635).
T1 construct: were incubated with human liver microsomes (0.25 mg/mL protein and 0.075 μM P450); from tissue; host or cells: human liver microsomes
In words: inhibition of cytochrome P450 2D6 in human liver microsomes (dextromethorphan to dextrorphan). The following applies: human liver microsomes 0.25 mg/mL protein, 8 μM dextromethorphan, 1 mM NADPH, 37° C., 20 min; average IC50 with number of tests in parentheses. Type of assay: biochemical. Here is the method: Following the 20 min incubation, the reaction was quenched by addition of 200 μL acetonitrile containing 0.1 μM buspirone as an internal standard. The samples were then vortex mixed and centrifuged to pellet the protein. The supernantant was transferred, dried under nitrogen flow and reconstituted in mobile phase. A 10 uL aliquot was injected onto a gradient reversed phase HPLC system with a Phenomenex Luna C18 (50×4.6 mm) column. Dextrorphan, formed by the metabolism of dextromethorphan by CYP 2D6, was monitored using tandem MS/MS in the APCl mode with the MRM transition of m/z 258.3>156.6. Remaining-CYP2D6 activity (%) was determined for the samples relative to a vehicle control. The data were analyzed by non-linear regression according to % R=% Rmax[formula](1−(C/(C+IC50))) using WinNonLin (version 4.0.1), where % R is the % remaining CYP 2D6 activity relative to the vehicle control, C is the concentration of the compound of interest, and IC50 is the inhibitory concentration of the compound of interest giving 50% inhibition of maximal % remaining activity. The data are reported as IC50s (μM). If more than one assay was performed for a particular compound, the average IC50 is reported with the number of tests in parentheses.
On the technique in general: Liver microsomes are vesicles of endoplasmic reticulum, rich in cytochrome P450 enzymes.

As a reminder, the pIC50 is −log10 of the IC50, conventionally taken in molar units.

pIC50: −log10 of the molar value. Bounds are passed on as bounds.

T1 sequence (P10635 whole entry): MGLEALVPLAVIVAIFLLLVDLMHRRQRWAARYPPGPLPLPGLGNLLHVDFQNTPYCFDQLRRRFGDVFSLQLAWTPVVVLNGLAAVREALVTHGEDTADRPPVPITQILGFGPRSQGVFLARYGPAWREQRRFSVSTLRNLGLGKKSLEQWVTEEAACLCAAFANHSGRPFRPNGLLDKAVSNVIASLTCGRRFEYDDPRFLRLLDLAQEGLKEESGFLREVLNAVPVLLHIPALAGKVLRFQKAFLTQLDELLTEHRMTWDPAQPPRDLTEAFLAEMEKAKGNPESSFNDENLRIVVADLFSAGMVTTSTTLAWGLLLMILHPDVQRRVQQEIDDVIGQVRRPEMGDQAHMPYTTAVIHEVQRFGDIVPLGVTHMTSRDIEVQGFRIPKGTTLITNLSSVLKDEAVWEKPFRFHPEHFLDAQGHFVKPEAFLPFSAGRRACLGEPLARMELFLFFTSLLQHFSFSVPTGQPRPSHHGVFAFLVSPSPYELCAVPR

Consider `Cc1cnc2nc(CC3=C(O)CC(CCc4cc(F)c(C(C)(C)C#N)c(F)c4)(C4CCCC4)OC3=O)nn2c1` (stereo not shown) [Compound 13, 2-[4-(2-{2-cyclopentyl-4-hydroxy-5-[(6-methyl[1,2,4]triazolo[1,5-a]pyriimidin-2-yl)methyl]-6-oxo-3,6-dihydro-2H-pyran-2-yl}ethyl)-2,6-difluorophenyl]-2-methylpropanenitrile], for which the pIC50 was over 7.13.
As for `N#CC1(c2ccc(CCC3(C4CCCC4)CC(O)=C(Cc4nc5ncc(Cl)cn5n4)C(=O)O3)cc2F)CC1` (stereo not shown) [Compound 14, 1-[4-(2-{5-[(6-chloro[1,2,4]triazolo[1,5-a]pyrimidin-2-yl)methyl]-2-cyclopentyl-4-hydroxy-6-oxo-3,6-dihydro-2H-pyran-2-yl}ethyl)-2-fluorophenyl]cyclopropanecarbonitrile], the figure is 6.57; as for `Cc1nc[nH]c1CC1=C(O)CC(CCc2ccc(C(C)(C)C#N)c(F)c2)(C2CCCC2)OC1=O` (stereo not shown) [Compound 15, 2-[4-(2-{2-cyclopentyl-4-hydroxy-5-[(4-methyl-1H-imidazol-5-yl)methyl]-6-oxo-3,6-dihydro-2H-pyran-2-yl}ethyl)-2-fluorophenyl]-2-methylpropanenitrile], 6.14.
Under `Cc1cc(C)n2nc(CC3=C(O)CC(COc4ccc(C(C)(C)C#N)c(F)c4)(C4CCCC4)OC3=O)nc2n1` (stereo not shown) [Compound 16, 2-[4-({2-cyclopentyl-5-[(5,7-dimethyl[1,2,4]triazolo[1,5-a]pyrimidin-2-yl)methyl]-4-hydroxy-6-oxo-3,6-dihydro-2H-pyran-2-yl}methoxy)-2-fluorophenyl]-2-methylpropanenitrile] stands 6.70.
Under `Cc1cnc2nc(CC3=C(O)CC(COc4ccc(C(C)(C)C#N)c(F)c4)(C4CCCC4)OC3=O)nn2c1` (stereo not shown) [Compound 17, 2-[4-({2-cyclopentyl-4-hydroxy-5-[(6-methyl[1,2,4]triazolo[1,5-a]pyrimidin-2-yl)methyl]-6-oxo-3,6-dihydro-2H-pyran-2-yl}methoxy)-2-fluorophenyl]-2-methylpropanenitrile] stands over 7.13.
`CC(C)(C#N)c1ccc(CCC2(C3CCCC3)CC(O)=C(Cc3nc4ncc(Cl)cn4n3)C(=O)O2)cc1F` (stereo not shown) [Compound 19]: the pIC50 is 6.80.
As for `CC(C)(C#N)c1c(F)cc(CCC2(C3CCCC3)CC(O)=C(Cc3nc4ncccn4n3)C(=O)O2)cc1F` (stereo not shown) [Compound 20, 2-(4-{2-[2-cyclopentyl-4-hydroxy-6-oxo-5-([1,2,4]triazolo[1,5-a]pyrimidin-2-ylmethyl)-3,6-dihydro-2H-pyran-2-yl]ethyl}-2,6-difluorophenyl)-2-methylpropanenitrile], the figure is over 7.13.
As for `CC(C)(C#N)c1ccc(CCC2(C3CCCC3)CC(O)=C(Cc3cn4ccccc4n3)C(=O)O2)cc1F` (stereo not shown) [Compound 21, 2-(4-{2-[2-cyclopentyl-4-hydroxy-5-(imidazo[1,2-a]pyridin-2-ylmethyl)-6-oxo-3,6-dihydro-2H-pyran-2-yl]ethyl}-2-fluorophenyl)-2-methylpropanenitrile], the figure is 6.05; as for `CC(C)(O)c1ccc(CCC2(C3CCCC3)CC(O)=C(Cc3nc4ncc(Cl)cn4n3)C(=O)O2)cc1F` (stereo not shown) [Compound 22, 3-[(6-chloro[1,2,4]triazolo[1,5-a]pyrimidin-2-yl)methyl]-6-cyclopentyl-6-{2-[3-fluoro-4-(1-hydroxy-1-methylethyl)phenyl]ethyl}-4-hydroxy-5,6-dihydro-2H-pyran-2-one], 6.22.
As to `CCc1cnc2nc(CC3=C(O)CC(CCc4cc(F)c(C(C)(C)C#N)c(F)c4)(C4CCCC4)OC3=O)nn2c1` (stereo not shown) [Compound 28, 2-[4-(2-{2-cyclopentyl-5-[(6-ethyl[1,2,4]triazolo[1,5-a]pyrimidin-2-yl)methyl]-4-hydroxy-6-oxo-3,6-dihydro-2H-pyran-2-yl}ethyl)-2,6-difluorophenyl]-2-methylpropanenitrile], the pIC50 is 6.89.
As for `Cc1cnc2nc(CC3=C(O)CC(CCc4ccc(C5(C#N)CCC5)c(F)c4)(C4CCCC4)OC3=O)nn2c1` (stereo not shown) [Compound 29, 1-[4-(2-{2-cyclopentyl-4-hydroxy-5-[(6-methyl[1,2,4]triazolo[1,5-a]pyrimidin-2-yl)methyl]-6-oxo-3,6-dihydro-2H-pyran-2-yl}ethyl)-2-fluorophenyl]cyclobutanecarbonitrile], the figure is 5.85; as for `Cc1cnc2nc(CC3=C(O)CC(CCc4cc(F)c(C5(C#N)CC5)c(F)c4)(C4CCCC4)OC3=O)nn2c1` (stereo not shown) [Compound 30, 1-[4-(2-{2-cyclopentyl-4-hydroxy-5-[(6-methyl[1,2,4]triazolo[1,5-a]pyrimidin-2-yl)methyl]-6-oxo-3,6-dihydro-2H-pyran-2-yl}ethyl)-2,6-difluorophenyl]cyclopropanecarbonitrile], 6.72; as for `COc1cc(C(C)(C)C#N)c(F)cc1CCC1(C2CCCC2)CC(O)=C(Cc2nc3ncc(C)cn3n2)C(=O)O1` (stereo not shown) [Compound 33, 2-[4-(2-{2-cyclopentyl-4-hydroxy-5-[(6-methyl[1,2,4]triazolo[1,5-a]pyrimidin-2-yl)methyl]-6-oxo-3,6-dihydro-2H-pyran-2-yl}ethyl)-2-fluoro-5-methoxyphenyl]-2-methylpropanenitrile], over 7.13.

Values taken from patent US20040224960A1, “Pharmaceutical compositions and methods for their use” (Agouron Pharmaceuticals, Inc., priority 2003, published 2004).
